{"source": "patent US20060194837A1", "about": "“Tetrahydroisoquinoline compounds” (priority 2004, published 2006)", "key": {"human H3 receptor": {"target": "T1, human H3 receptor (Homo sapiens, UniProt Q9Y5N1)", "T1 construct": "expressed in transfected cells", "T1 sequence (Q9Y5N1 whole entry)": "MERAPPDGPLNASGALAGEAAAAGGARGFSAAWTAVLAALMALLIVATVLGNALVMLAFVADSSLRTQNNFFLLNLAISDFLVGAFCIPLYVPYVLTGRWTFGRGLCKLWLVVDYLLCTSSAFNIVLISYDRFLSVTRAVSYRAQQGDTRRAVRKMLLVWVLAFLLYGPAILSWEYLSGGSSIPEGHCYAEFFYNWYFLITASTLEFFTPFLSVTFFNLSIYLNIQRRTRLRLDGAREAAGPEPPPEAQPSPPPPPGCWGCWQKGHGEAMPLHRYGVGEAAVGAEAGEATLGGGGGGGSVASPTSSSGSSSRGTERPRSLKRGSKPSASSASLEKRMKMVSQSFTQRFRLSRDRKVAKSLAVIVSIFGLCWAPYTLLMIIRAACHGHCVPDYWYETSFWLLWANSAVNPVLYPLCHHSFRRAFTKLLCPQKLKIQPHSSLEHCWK", "test": "H3 receptor binding (N-[3H]-α-methylhistamine displacement)", "conditions": "membranes of SK-N-MC cells expressing cloned human H3 receptor, 0.8 nM N-[3H]-α-methylhistamine, 60 min at 25° C.", "method": "Briefly, cell pellets from SK-N-MC cells expressing the human H3 receptor were homogenized in 50 mM Tris-HCl/5 mM EDTA and re-centrifuged at 30,000 g for 30 min. Pellets were re-homogenized in 50 mM Tris/6 mM EDTA (pH 7.4). Membranes were incubated with 0.8 nM N-[^3H]-α-methylhistamine plus/minus test compounds for 60 min at 25° C. and harvested by rapid filtration over GF/C glass fiber filters (pretreated with 0.3% polyethylenimine) followed by four washes with ice-cold buffer. Nonspecific binding was defined in the presence of 10 μM histamine."}, "Rat SERT": {"target": "T2, Rat SERT (Rattus norvegicus, UniProt P31652)", "T2 construct": "A rat brain without cerebellum (Zivic Laboratories, Inc.—Pittsburgh, Pa.) was homogenized; tissue Zivic Laboratories, Inc; host or cells: rat brain without cerebellum, membranes", "T2 sequence (P31652 whole entry)": "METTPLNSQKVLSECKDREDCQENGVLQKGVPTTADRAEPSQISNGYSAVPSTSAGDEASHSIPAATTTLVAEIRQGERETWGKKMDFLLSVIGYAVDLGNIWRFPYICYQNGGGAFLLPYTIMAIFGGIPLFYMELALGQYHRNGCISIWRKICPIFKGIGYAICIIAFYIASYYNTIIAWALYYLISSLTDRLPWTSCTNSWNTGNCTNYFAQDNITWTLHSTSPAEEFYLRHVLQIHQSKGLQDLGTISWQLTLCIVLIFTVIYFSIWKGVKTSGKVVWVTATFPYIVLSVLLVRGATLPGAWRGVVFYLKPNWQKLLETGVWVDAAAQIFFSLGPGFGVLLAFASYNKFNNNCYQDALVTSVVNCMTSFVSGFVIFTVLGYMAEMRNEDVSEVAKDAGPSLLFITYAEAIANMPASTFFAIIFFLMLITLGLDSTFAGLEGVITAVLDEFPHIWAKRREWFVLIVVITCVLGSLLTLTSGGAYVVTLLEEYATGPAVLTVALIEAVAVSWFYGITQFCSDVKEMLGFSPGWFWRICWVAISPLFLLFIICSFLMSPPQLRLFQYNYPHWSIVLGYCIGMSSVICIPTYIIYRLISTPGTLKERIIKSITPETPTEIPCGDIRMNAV", "test": "Rat brain SERT binding ([3H]-citalopram displacement)", "conditions": "rat brain membranes without cerebellum, 0.6 nM [3H]-citalopram, 60 min at 25° C.; read-out: Rat SERT Ki", "method": "The supernatant was removed and re-centrifuged at 15,000 rpm for 30 min. […] Membranes were incubated with 0.6 nM [^3H]-Citalopram plus/minus test compounds for 60 min at 25° C. and harvested by rapid filtration over GF/C glass fiber filters (pretreated with 0.3% polyethylenimine) followed by four washes with ice-cold buffer."}}, "data": [{"molecule": "COc1ccc(C2CN(C)Cc3cc(OCCC4CCCN4C)ccc32)cc1", "note": "(mixture of isomers) [Example 240, 4-(4-Methoxy-phenyl)-2-methyl-7-[2-(1-methyl-pyrrolidin-2-yl)-ethoxy]-1,2,3,4-tetrahydro-isoquinoline]", "values": [{"measurement": "Ki", "setting": "human H3 receptor", "result": 4, "unit": "nM"}, {"measurement": "Ki", "setting": "Rat SERT", "result": 3, "unit": "nM"}]}, {"molecule": "COc1ccc(C2CN(C)Cc3cc(OCC4CN(C)CCO4)ccc32)cc1", "note": "(mixture of isomers) [Example 251, 4-(4-Methoxy-phenyl)-2-methyl-7-(4-methyl-morpholin-2-ylmethoxy)-1,2,3,4-tetrahydro-isoquinoline]", "values": [{"measurement": "Ki", "setting": "human H3 receptor", "result": 67, "unit": "nM"}, {"measurement": "Ki", "setting": "Rat SERT", "result": 12, "unit": "nM"}]}, {"molecule": "COc1ccc(C2CN(C)Cc3cc(OCC4CN(CCF)CCO4)ccc32)cc1", "note": "(mixture of isomers) [Example 258, 7-[4-(2-Fluoro-ethyl)-morpholin-2-ylmethoxy]-4-(4-methoxy-phenyl)-2-methyl-1,2,3,4-tetrahydro-isoquinoline]", "values": [{"measurement": "Ki", "setting": "human H3 receptor", "result": 32, "unit": "nM"}, {"measurement": "Ki", "setting": "Rat SERT", "result": 8, "unit": "nM"}]}, {"molecule": "COc1ccc(C2CN(C)Cc3cc(OC[C@H]4CN(C5CC5)CCO4)ccc32)cc1", "note": "(mixture of isomers) [Example 261, 7-(4-Cyclopropyl-morpholin-2R-ylmethoxy)-4-(4-methoxy-phenyl)-2-methyl-1,2,3,4-tetrahydro-isoquinoline]", "values": [{"measurement": "Ki", "setting": "human H3 receptor", "result": 62, "unit": "nM"}, {"measurement": "Ki", "setting": "Rat SERT", "result": 32, "unit": "nM"}]}, {"molecule": "CSc1ccc(C2CN(C)Cc3cc(OCC4CNCCO4)ccc32)cc1", "note": "(mixture of isomers) [Example 264, 2-Methyl-4-(4-methylsulfanyl-phenyl)-7-(morpholin-2-ylmethoxy)-1,2,3,4-tetrahydro-isoquinoline]", "values": [{"measurement": "Ki", "setting": "human H3 receptor", "result": 3250, "unit": "nM"}, {"measurement": "Ki", "setting": "Rat SERT", "result": 6, "unit": "nM"}]}, {"molecule": "COc1ccc(C2CN(C)Cc3cc(OCCCN4CCC(F)CC4)ccc32)c(F)c1", "note": "(racemic) [Example 139, 4-(2-Fluoro-4-methoxy-phenyl)-7-[3-(4-fluoro-piperidin-1-yl)-propoxy]-2-methyl-1,2,3,4-tetrahydro-isoquinoline]", "values": [{"measurement": "Ki", "setting": "Rat SERT", "result": 6, "unit": "nM"}]}, {"molecule": "COc1ccc(C2CN(C)Cc3cc(OCCCN4CCOC[C@@H]4CO)ccc32)cc1", "note": "(mixture of isomers) [Example 183A, (4-{3-[4-(4-Methoxy-phenyl)-2-methyl-1,2,3,4-tetrahydro-isoquinolin-7-yloxy)-propyl}-morpholin-3S-yl)-methanol]", "values": [{"measurement": "Ki", "setting": "human H3 receptor", "result": 6, "unit": "nM"}, {"measurement": "Ki", "setting": "Rat SERT", "result": 1, "unit": "nM"}]}, {"molecule": "COc1ccc(C2CN(C)Cc3cc(OC[C@@H]4CN(C(C)C)CCO4)ccc32)cc1", "note": "(mixture of isomers) [Example 255, 7-(4-Isopropyl-morpholin-2S-ylmethoxy)-4-(4-methoxy-phenyl)-2-methyl-1,2,3,4-tetrahydro-isoquinoline]", "values": [{"measurement": "Ki", "setting": "human H3 receptor", "result": 2, "unit": "nM"}, {"measurement": "Ki", "setting": "Rat SERT", "result": 16, "unit": "nM"}]}, {"molecule": "COc1ccc(C2CN(C)Cc3cc(OC[C@@H]4CN(C5CC5)CCO4)ccc32)cc1", "note": "(mixture of isomers) [Example 260, 7-(4-Cyclopropyl-morpholin-2S-ylmethoxy)-4-(4-methoxy-phenyl)-2-methyl-1,2,3,4-tetrahydro-isoquinoline]", "values": [{"measurement": "Ki", "setting": "human H3 receptor", "result": 3, "unit": "nM"}, {"measurement": "Ki", "setting": "Rat SERT", "result": 29, "unit": "nM"}]}, {"molecule": "COc1ccc(C2CN([C@H](C)c3ccccc3)Cc3cc(OCCCN4CCOCC4)ccc32)cc1", "note": "(single isomer, unassigned) [Example 75, 4-(4-Methoxy-phenyl)-7-(3-morpholin-4-yl-propoxy)-2-(1-phenyl-ethyl)-1,2,3,4-tetrahydro-isoquinoline]", "values": [{"measurement": "Ki", "setting": "human H3 receptor", "result": 14, "unit": "nM"}, {"measurement": "Ki", "setting": "Rat SERT", "result": 79, "unit": "nM"}]}, {"molecule": "COc1ccc(C2CN(C(C)c3ccccc3)Cc3cc(OCCCN4CCOCC4)ccc32)cc1", "note": "(single isomer, unassigned) [Example 75A, 4-(4-Methoxy-phenyl)-7-(3-morpholin-4-yl-propoxy)-2-(1-phenyl-ethyl)-1,2,3,4-tetrahydro-isoquinoline]", "values": [{"measurement": "Ki", "setting": "human H3 receptor", "result": 7, "unit": "nM"}, {"measurement": "Ki", "setting": "Rat SERT", "result": 2000, "unit": "nM"}]}, {"molecule": "COc1ccc(C2CN(C)Cc3cc(OCCCN4CCC(F)CC4)ccc32)c(F)c1", "note": "(single isomer, unassigned) [Example 140, 4-(2-Fluoro-4-methoxy-phenyl)-7-[3-(4-fluoro-piperidin-1-yl)-propoxy]-2-methyl-1,2,3,4-tetrahydro-isoquinoline]", "values": [{"measurement": "Ki", "setting": "Rat SERT", "result": 28, "unit": "nM"}]}, {"molecule": "COc1ccc(C2CN(C)Cc3cc(OCCCN4CCC(F)CC4)ccc32)c(F)c1", "note": "(single isomer, unassigned) [Example 141, 4-(2-Fluoro-4-methoxy-phenyl)-7-[3-(4-fluoro-piperidin-1-yl)-propoxy]-2-methyl-1,2,3,4-tetrahydro-isoquinoline]", "values": [{"measurement": "Ki", "setting": "Rat SERT", "result": 3, "unit": "nM"}]}, {"molecule": "COc1ccc(C2CN(C)Cc3cc(OCCCN4CCC(F)CC4)ccc32)cc1F", "note": "(single isomer, unassigned) [Example 143, 4-(3-Fluoro-4-methoxy-phenyl)-7-[3-(4-fluoro-piperidin-1-yl)-propoxy]-2-methyl-1,2,3,4-tetrahydro-isoquinoline]", "values": [{"measurement": "Ki", "setting": "human H3 receptor", "result": 4, "unit": "nM"}, {"measurement": "Ki", "setting": "Rat SERT", "result": 18, "unit": "nM"}]}, {"molecule": "COc1ccc(C2CN(C)Cc3cc(OCCCN4CCC(F)CC4)ccc32)cc1F", "note": "(single isomer, unassigned) [Example 144, 4-(3-Fluoro-4-methoxy-phenyl)-7-[3-(4-fluoro-piperidin-1-yl)-propoxy]-2-methyl-1,2,3,4-tetrahydro-isoquinoline]", "values": [{"measurement": "Ki", "setting": "human H3 receptor", "result": 6, "unit": "nM"}, {"measurement": "Ki", "setting": "Rat SERT", "result": 5, "unit": "nM"}]}, {"molecule": "COc1ccc(C2CN(C)Cc3cc(OCCC4CCCN4C)ccc32)cc1", "note": "(single isomer, unassigned) [Example 240A, 4-(4-Methoxy-phenyl)-2-methyl-7-[2-(1-methyl-pyrrolidin-2-yl)-ethoxy]-1,2,3,4-tetrahydro-isoquinoline]", "values": [{"measurement": "Ki", "setting": "human H3 receptor", "result": 3, "unit": "nM"}, {"measurement": "Ki", "setting": "Rat SERT", "result": 2, "unit": "nM"}]}, {"molecule": "COc1ccc(C2CN(C)Cc3cc(OCCC4CCCN4C)ccc32)cc1", "note": "(single isomer, unassigned) [Example 240B, 4-(4-Methoxy-phenyl)-2-methyl-7-[2-(1-methyl-pyrrolidin-2-yl)-ethoxy]-1,2,3,4-tetrahydro-isoquinoline]", "values": [{"measurement": "Ki", "setting": "human H3 receptor", "result": 21, "unit": "nM"}, {"measurement": "Ki", "setting": "Rat SERT", "result": 5, "unit": "nM"}]}, {"molecule": "COc1ccc(C2CN(C)Cc3cc(OC[C@@H]4CN(C5CC5)CCO4)ccc32)cc1", "note": "(single isomer, unassigned) [Example 260B, 7-(4-Cyclopropyl-morpholin-2S-ylmethoxy)-4-(4-methoxy-phenyl)-2-methyl-1,2,3,4-tetrahydro-isoquinoline]", "values": [{"measurement": "Ki", "setting": "human H3 receptor", "result": 29, "unit": "nM"}, {"measurement": "Ki", "setting": "Rat SERT", "result": 26, "unit": "nM"}]}, {"molecule": "COc1ccc(C2CN(C)Cc3cc(OC[C@H]4CN(C5CC5)CCO4)ccc32)cc1", "note": "(single isomer, unassigned) [Example 261A, 7-(4-Cyclopropyl-morpholin-2R-ylmethoxy)-4-(4-methoxy-phenyl)-2-methyl-1,2,3,4-tetrahydro-isoquinoline]", "values": [{"measurement": "Ki", "setting": "human H3 receptor", "result": 73, "unit": "nM"}, {"measurement": "Ki", "setting": "Rat SERT", "result": 32, "unit": "nM"}]}, {"molecule": "COc1ccc(C2CN(C)Cc3cc(OC[C@H]4CN(C5CC5)CCO4)ccc32)cc1", "note": "(single isomer, unassigned) [Example 261B, 7-(4-Cyclopropyl-morpholin-2R-ylmethoxy)-4-(4-methoxy-phenyl)-2-methyl-1,2,3,4-tetrahydro-isoquinoline]", "values": [{"measurement": "Ki", "setting": "human H3 receptor", "result": 64, "unit": "nM"}, {"measurement": "Ki", "setting": "Rat SERT", "result": 17, "unit": "nM"}]}, {"molecule": "COc1ccc(C2CN(C)Cc3cc(OCCCN=C4N(C)CCCN4C)ccc32)cc1", "note": "(stereo not shown) [Example 15, (1,3-Dimethyl-tetrahydro-pyrimidin-2-ylidene)-{3-[4-(4-methoxy-phenyl)-2-methyl-1,2,3,4-tetrahydro-isoquinolin-7-yloxy]-propyl}-amine]", "values": [{"measurement": "Ki", "setting": "human H3 receptor", "result": 499, "unit": "nM"}, {"measurement": "Ki", "setting": "Rat SERT", "result": 11, "unit": "nM"}]}, {"molecule": "COc1ccc(C2CN(C)Cc3cc(OCC4CCN(C(C)C)CC4)ccc32)c(F)c1", "note": "(stereo not shown) [Example 90, 4-(2-Fluoro-4-methoxy-phenyl)-7-(1-isopropyl-piperidin-4-ylmethoxy)-2-methyl-1,2,3,4-tetrahydro-isoquinoline]", "values": [{"measurement": "Ki", "setting": "Rat SERT", "result": 9, "unit": "nM"}]}]}
